Data as given in patent publication US20130281313A1, “PROGNOSTIC AND/OR PREDICTIVE BIOMARKERS AND BIOLOGICAL APPLICATIONS THEREOF” (INSTITUT GUSTAVE ROUSSY, priority 2010, published 2013).

What was measured:
Saccharomyces cerevisiae = assay: Yeast clonogenic survival; type: cell-based; details: yeast cells, pre-incubated with 1 mM AOAA before CDDP
Method: The haploid WT Saccharomyces cerevisiae strain BY4741 (MATa; his3Δ1; leu2Δ0; met15Δ0; ura3Δ0), its diploid counterpart BY4743 (MATa/MATα; his3Δ1/his3Δ1; leu2Δ0/leu2Δ0; MET15/met15Δ0; LYS2/lys2Δ0; ura3Δ0/ura3Δ0) as well as the null mutants employed in this study were obtained from were obtained from Euroscarf (Frankfurt, Germany). For large-scale experiments (see also FIG. 9), yeast cells were cultured on a routine basis at 28° C., on yeast extract peptone dextrose (YEPD) medium containing 1% yeast extract (Difco Laboratories, Detroit, USA), 2% bacto peptone (Difco Laboratories) and […] {Madeo, 2002}. […]
In all settings, cell number was then quantified by means of a CASY® cell counter (Schärfe System, Reutlingen, Germany) and 500 cells from each experimental condition were seeded on three parallel YEPD plates. Following 3 days of incubation at 28° C., plates were finally subjected to the quantification of colony forming units (CFUs). For each genotype or experimental condition, clonogenic survival was calculated as the ratio between the number of CFUs observed in treated and untreated conditions.

A549 cells [1] = assay: Cytofluorometric assessment of cell death (DiOC6(3)/PI co-staining); type: cell-based, human; details: A549 cells, 75 μM CDDP
Method: Unless otherwise specified, chemicals were purchased from Sigma-Aldrich (St. Louis, USA), culture media and supplements for cell culture from Gibco-Invitrogen (Carlsbad, USA) and plasticware from Corning (Corning, USA). […] Orlistat (Xenical®) was obtained from Roche (Basel, Switzerland). […] Undissolved material was removed by two sequential rounds of centrifugation at 12,000 G (5 min, room temperature, RT), supernatants were collected and stored at −80° C. under protection from light until use. In low-throughput experiments, all cell lines were treated with 2.5 mM pyridoxine (PN), exception made for A549 cells that received 5 mM PN.
To avoid depleting the siRNA library of selected sequences, siRNAs for validation experiments were purchased as custom molecules from Sigma-Aldrich. For low-throughput experiments, (see below for the transfection protocols employed in the siRNA screen), siRNA were transfected in A549 cells with Oligofectamine™ reagent (Invitrogen), following the manufacturer's instructions. Transfection with a non-targeting siRNA (siUNR) was employed as a negative control condition. Forty-eight hours after transfection, siRNA-mediated target downregulation was assessed by immunoblotting (see below).
All cytofluorometric determinations were carried out a FACSCalibur or a FACScan cytofluorometer (BD Biosciences, San Jose, USA) equipped with a 70 μm nozzle.
First line statistical analysis of cytofluorometric results was performed by using the CellQuest™ software (BD Biosciences), by gating on the events characterized by normal forward scatter and side scatter parameters. Apoptosis- and cell cycle-related data were further analyzed with Microsoft Excel (Microsoft Co., Redmond, USA) and statistical significance was assessed by means of two-tailed Student's t test (p<0.05).

A549 cells [2] = assay: Transcriptome studies (mRNA microarrays); type: cell-based, human
Method: NSCLC A549 cells were treated with 100 μM CDDP, 75 μM C2-CER or 100 μM CdCl2 for 12 h, or with 50 μM CDDP, C2-CER or CdCl2 for 24 h. Thereafter, cells were collected and lysed for RNA extraction of following established procedures {de La Motte Rouge, 2007}. mRNA expression changes were quantified on G4112A 44 k Whole Human Genome Oligo Microarrays (Agilent Technologies, Santa Clara, USA), as previously reported {Castedo, 2006}. mRNA microarrays underwent standardized post-hybridization processing, image acquisition and analysis (see below) {Castedo, 2006}.
Data from microarray experiments were analyzed with the Rosetta Resolver® System (Rosetta Biosoftware, Seattle, USA). The threshold for statistical significance of probe signals (Intensity) was set at p=10^−5. […] For each mRNA, fold change (FC) was then defined as Intensitysample/Intensitycontrol when Intensitysample>Intensitycontrol, or as—(Intensitycontrol/Intensitysample) when Intensitysample<Intensitycontrol. Ratios were calculated as Intensitysample/Intensitycontrol.

[3] = system: isolated rat liver mitochondria; assay: Large-amplitude swelling of isolated mitochondria; details: cell-free experiments
Method: Mitochondria were isolated from the liver of male Wistar Kyoto rats (Charles River Laboratories Inc., Wilmington, USA) by differential centrifugation, as previously described {Zischka, 2008}. Briefly, immediately after organ collection, livers were homogenized with a glass teflon homogenizer in an isolation buffer containing 10 mM triethanolamine, 10 mM acetic acid, 280 mM sucrose, 0.2 mM EGTA (pH adjusted to 7.4 with KOH). Homogenates were cleared from debris and nuclei by two rounds of centrifugation at 750 G (10 min, 4° C.). […]
For large-amplitude swelling determinations, mitochondria were resuspended in swelling buffer (10 mM Tris-MOPS pH 7.4, 200 mM sucrose, 5 mM succinate, 1 mM phosphate, 10 μM EGTA and 2 μM rotenone) and pre-incubated for 5 min at RT with swelling buffer (negative control) or either of the following permeability transition inhibitors: 5 or 10 μM bongkrekic acid (BA), 1 or 5 μM cyclosporine A (CsA); 0.1 or 0.5 mM reduced glutathione (GSH) or 0.5 or 2 mM N-acetylcysteine (NAC). […] Permeability transition-induced large-amplitude swelling was assessed by measuring light scattering of mitochondrial suspensions at 540 nm on a standard microplate absorbance reader (μ-Quant™, Bio-Tek, Bad Friedrichshall, Germany) every 5 min over a total assay time of 30 min (at RT), as previously described {Zischka, 2008}. […]

[4] = 12 h, 100 μM CDDP, 75 μM C2-CER or 100 μM CdCl2, vs untreated cells
[5] = 24 h, 50 μM CDDP, C2-CER or CdCl2, vs untreated cells

Structure (SMILES): NOCC(=O)O [AOAA, aminooxyacetic acid]
- toxicity of CDDP upon addition of the CCBL1 inhibitor (clonogenic survival) (Saccharomyces cerevisiae): reduced the toxicity of CDDP
- toxicity of CDDP upon addition of the CCBL1 inhibitor (A549 cells [1]): reduced the toxicity of CDDP

Structure (SMILES): [Cl][Cd][Cl] [CdCl2, cadmium chloride]
- Fold change, ADAR (NM_001111) transcript (A549 cells [2]; [4]): n.s.
- Fold change, ALDH7AT (NM_001182) transcript (A549 cells [2]; [4]): −1.65
- Fold change, CD151 (NM_004357) transcript (A549 cells [2]; [4]): n.s.
- Fold change, CLIC1 (NM_001288) transcript (A549 cells [2]; [4]): 4.60
- Fold change, COMMO9 (NM_014186) transcript (A549 cells [2]; [4]): 1.85
- Fold change, COX5B (NM_001802) transcript (A549 cells [2]; [4]): n.s.
- Fold change, COX7C (NM_001867) transcript (A549 cells [2]; [4]): n.s.
- Fold change, DHRSX (NM_145177) transcript (A549 cells [2]; [4]): 1.64
- Fold change, EBP (NM_006579) transcript (A549 cells [2]; [4]): n.s.
- Fold change, EEF2 (NM_001901) transcript (A549 cells [2]; [4]): n.s.
- Fold change, FDXK (NM_003681) transcript (A549 cells [2]; [4]): n.s.
- Fold change, FN3KRP (NM_024619) transcript (A549 cells [2]; [4]): −3.34
- Fold change, HDLBP (NM_005336) transcript (A549 cells [2]; [4]): n.s.
- Fold change, HGD (NM_000187) transcript (A549 cells [2]; [4]): −2.37
- Fold change, IL6R (NM_000565) transcript (A549 cells [2]; [4]): n.s.
- Fold change, KHSRP (NM_003685) transcript (A549 cells [2]; [4]): n.s.
- Fold change, LOC389727 (NM_372092) transcript (A549 cells [2]; [4]): 2.09
- Fold change, MAT2A (NM_005911) transcript (A549 cells [2]; [4]): −4.30
- Fold change, MOL1 (NM_021960) transcript (A549 cells [2]; [4]): 1.37
- Fold change, MPP6 (NM_016447) transcript (A549 cells [2]; [4]): −3.80
- Fold change, OSTCL (NM_145303) transcript (A549 cells [2]; [4]): n.s.
- Fold change, P5MC5 (NM_002805) transcript (A549 cells [2]; [4]): n.s.
- Fold change, PLK1S1 (NM_018474) transcript (A549 cells [2]; [4]): n.s.
- Fold change, PPM1J (NM_005167) transcript (A549 cells [2]; [4]): n.s.
- Fold change, RNF26 (NM_032015) transcript (A549 cells [2]; [4]): −1.77
- Fold change, RRAD (NM_004185) transcript (A549 cells [2]; [4]): 3.33
- Fold change, SEMA3G (NM_000379) transcript (A549 cells [2]; [4]): n.s.
- Fold change, SLC22A16AS (NM_007105) transcript (A549 cells [2]; [4]): −1.43
- Fold change, SOCS6 (NM_004232) transcript (A549 cells [2]; [4]): n.s.
- Fold change, TMED1 (NM_006858) transcript (A549 cells [2]; [4]): n.s.
- Fold change, TRIP4 (NM_016213) transcript (A549 cells [2]; [4]): n.s.
- Fold change, UBE2L3 (NM_003347) transcript (A549 cells [2]; [4]): n.s.
- Fold change, UBE21 (NM_014176) transcript (A549 cells [2]; [4]): −2.06
- Fold change, W282 (NM_018029) transcript (A549 cells [2]; [4]): 1.32
- Fold change, ADAR (NM_001111) transcript (A549 cells [2]; [5]): −1.33
- Fold change, ALDH7AT (NM_001182) transcript (A549 cells [2]; [5]): −1.82
- Fold change, CD151 (NM_004357) transcript (A549 cells [2]; [5]): n.s.
- Fold change, CLIC1 (NM_001288) transcript (A549 cells [2]; [5]): −1.29
- Fold change, COMMO9 (NM_014186) transcript (A549 cells [2]; [5]): 1.87
- Fold change, COX5B (NM_001802) transcript (A549 cells [2]; [5]): n.s.
- Fold change, COX7C (NM_001867) transcript (A549 cells [2]; [5]): n.s.
- Fold change, DHRSX (NM_145177) transcript (A549 cells [2]; [5]): 1.38
- Fold change, EBP (NM_006579) transcript (A549 cells [2]; [5]): n.s.
- Fold change, EEF2 (NM_001901) transcript (A549 cells [2]; [5]): n.s.
- Fold change, FDXK (NM_003681) transcript (A549 cells [2]; [5]): n.s.
- Fold change, FN3KRP (NM_024619) transcript (A549 cells [2]; [5]): −2.05
- Fold change, HDLBP (NM_005336) transcript (A549 cells [2]; [5]): n.s.
- Fold change, HGD (NM_000187) transcript (A549 cells [2]; [5]): −2.34
- Fold change, IL6R (NM_000565) transcript (A549 cells [2]; [5]): n.s.
- Fold change, KHSRP (NM_003685) transcript (A549 cells [2]; [5]): n.s.
- Fold change, LOC389727 (NM_372092) transcript (A549 cells [2]; [5]): n.s.
- Fold change, MAT2A (NM_005911) transcript (A549 cells [2]; [5]): −3.05
- Fold change, MOL1 (NM_021960) transcript (A549 cells [2]; [5]): 1.07
- Fold change, MPP6 (NM_016447) transcript (A549 cells [2]; [5]): n.s.
- Fold change, OSTCL (NM_145303) transcript (A549 cells [2]; [5]): n.s.
- Fold change, P5MC5 (NM_002805) transcript (A549 cells [2]; [5]): n.s.
- Fold change, PLK1S1 (NM_018474) transcript (A549 cells [2]; [5]): n.s.
- Fold change, PPM1J (NM_005167) transcript (A549 cells [2]; [5]): n.s.
- Fold change, RNF26 (NM_032015) transcript (A549 cells [2]; [5]): −1.51
- Fold change, RRAD (NM_004185) transcript (A549 cells [2]; [5]): 2.04
- Fold change, SEMA3G (NM_000379) transcript (A549 cells [2]; [5]): n.s.
- Fold change, SLC22A16AS (NM_007105) transcript (A549 cells [2]; [5]): −1.53
- Fold change, SOCS6 (NM_004232) transcript (A549 cells [2]; [5]): n.s.
- Fold change, TMED1 (NM_006858) transcript (A549 cells [2]; [5]): n.s.
- Fold change, TRIP4 (NM_016213) transcript (A549 cells [2]; [5]): n.s.
- Fold change, UBE2L3 (NM_003347) transcript (A549 cells [2]; [5]): n.s.
- Fold change, UBE21 (NM_014176) transcript (A549 cells [2]; [5]): −1.50
- Fold change, W282 (NM_018029) transcript (A549 cells [2]; [5]): n.s.
- direct mitochondrion-permeabilizing effects [3]: can mediate direct mitochondrion-permeabilizing effects
